Data on 65 compounds can be found in PubChem BioAssay AID1963597 (National Center for Advancing Translational Sciences (NCATS), 2024).

For orientation: half-life means the time needed for the level to fall by half in the phase considered.

In the data set the test system is human liver microsomes, metabolic stability half-life. Kind of data set: NCATS Human Liver Microsomal (HLM) Stability Profiling. As to conditions: higher = more stable; screened at 1 µM (by protocol). The method in brief: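 Substrate depletion (in vitro t1/2): 1 µM compound with 0.5 mg/mL microsomes and NADPH regenerating system, phosphate buffer pH 7.4, 37 °C. Sampled at 0, 5, 10, 15, 30, 60 min into cold acetonitrile with albendazole internal standard for MS quantification.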
On the technique in general: Liver microsomes are a subcellular fraction often used to study metabolism.
`C=CCN1CC[C@]23c4c5ccc(O)c4O[C@H]2C(=O)CC[C@@]3(O)[C@H]1C5` showed a half-life above 120 min. In the case of `CN1C(C)(C)CCCC1(C)C` it was above 120 min; in that of `C[C@]12CCC3c4ccc(O)cc4C[C@@H](CCCCCCCCCS(=O)CCCC(F)(F)C(F)(F)F)[C@H]3[C@@H]1CC[C@@H]2O` (stereo not given in full), 4.1 min. The compound `O=c1cc(-c2ccc(O)cc2)oc2cc(O)cc(O)c12` yielded a half-life of 18.8 min.

Compound `CC(=O)OCC(CCn1cnc2cnc(N)nc21)COC(C)=O` displayed a half-life of 2.34 min. With `COC(=O)N[C@@H](C)CNc1nccc(-c2cn(C(C)C)nc2-c2cc(Cl)cc(NS(C)(=O)=O)c2F)n1`, the half-life is 34.4 min. In the case of `CC(C)c1ccc2oc(-c3ccc(NC(=O)c4cc5ccccc5o4)cc3)nc2c1` it was 25.3 min; in that of `Cc1cc2c(F)c(Oc3ncnn4cc(OCC(C)O)c(C)c34)ccc2[nH]1` (stereo not given), above 120 min. In the case of `CCCC(CCC)C(=O)Nc1ccn([C@@H]2O[C@H](CO)[C@@H](O)C2(F)F)c(=O)n1` it was above 120 min; in that of `Cc1ccc(-c2ccccc2C#N)cc1`, 1 min. In the case of `C=CC(=O)N1CCN(C(=O)CNc2cc(-c3ccccc3Cl)c(Cl)cc2OC)CC1` it was 9.86 min; in that of `CCN1CCCC1CNC(=O)c1cc(S(=O)(=O)CC)c(N)cc1OC` (stereo not given), above 120 min; in that of `CC(C)(CNC(=O)c1cccc(-c2noc(C(F)(F)F)n2)c1)c1coc(-c2ccccc2)n1`, 33.1 min.

Consider `COc1cc(C(=O)NC2CCCNC2)cc(OC)c1OC` (stereo not given), for which the half-life is above 120 min. In the case of `COc1ccc2c3c1O[C@H]1[C@@H](O)C=C[C@H]4[C@@H](C2)N(C)CC[C@@]341` it was 112 min; in that of `O=C(Cn1ncc2c([nH]c3ccccc32)c1=O)NCCCN1CCN(c2ccccc2)CC1`, above 120 min; in that of `Cn1cc(-c2cnc3ccc4ccc(CS(=O)(=O)NCc5ccccn5)cc4c(=O)c3c2)cn1`, 17.1 min. In the case of `Cc1ccc(NC(=O)Nc2cccs2)c(C)c1` it was 23.8 min; in that of `NC(=O)c1cnc(N[C@@H]2CCCC[C@H]2N)nc1Nc1cccc(-n2nccn2)c1`, 90.7 min. The compound `O=S(c1cc(Cl)cc(Cl)c1O)c1cc(Cl)cc(Cl)c1O` displayed a half-life of 99.8 min.

In turn, `C=CCc1ccccc1OCC(O)CNC(C)C` (stereo not given) returned a half-life of 22 min. With `COC1CCN(C(=O)c2cc(Cc3n[nH]c(=O)c4ccccc34)ccc2F)CC1` the figure was 76.1 min. In the case of `CCN(Cc1ccc(Cl)nc1)/C(=C/[N+](=O)[O-])NC` it was above 120 min; in that of `CCCCC(=O)OCC(=O)[C@H]1[C@H](C)C[C@H]2[C@@H]3C[C@H](F)C4=CC(=O)C=C[C@]4(C)[C@@]3(F)[C@@H](O)C[C@@]21C`, 5.18 min; in that of `O=C(Nc1ncc([N+](=O)[O-])s1)c1cccs1`, 29 min. Consider `CN1CCN(C(=O)c2ccc(Nc3nccc(-c4cccs4)n3)cc2Cl)CC1`, for which the half-life came to 19.2 min. In the case of `CCc1cccc2cc(C(O)CNC(C)(C)C)oc12` (stereo not given) it was 96.4 min. With `CCc1nn(C)c(C(=O)NCc2ccc(Oc3ccc(C)cc3)cc2)c1Cl` the figure was 7.51 min; with `CC(C)Oc1ccc2c(=O)c(-c3ccccc3)coc2c1`, 16.1 min; with `COCc1c(Cl)ccc2c1CC[C@H]2c1ncc[nH]1`, 115 min. Compound `COc1ccc(S(=O)(=O)Nc2cc(Cl)cc(Cl)c2OC)cc1N1CCNCC1` gave a half-life above 120 min. In the case of `CC(C)(C)c1ccc(-c2nc3c(N4CCN(Cc5ccc6nccnc6c5)CC4)cccc3[nH]2)cc1` it was 20.5 min. Turning to `O=C(NC1(c2ccccc2)CC1)c1c(CN2CCC(N3CCCCC3)CC2)c(-c2cccc(C(F)(F)F)c2)nc2cc(Br)ccc12`, the half-life worked out at 28.1 min. In the case of `Clc1ccc(CO/N=C(\Cn2ccnc2)c2ccc(Cl)cc2Cl)c(Cl)c1` it was 55.1 min; in that of `Oc1ccccc1-c1nnco1`, 43.3 min; in that of `Cc1ccc([S+](=O)([O-])NC2CCC(C)(C)CC2)cc1`, 4.82 min. In the case of `FC(F)c1nc2ccccc2n1-c1nc(N2CCOCC2)nc(N2CCOCC2)n1` it was 25.4 min; in that of `C[C@]12CCC(=O)C=C1CC[C@@H]1[C@@H]2CC[C@@]2(C)[C@H]1CC[C@]2(O)C(=O)CO`, 62.1 min. Turning to `NC(=O)c1ccc(Cc2c(-c3cccc(-c4ccccc4)c3)[nH]n(-c3nc(C(=O)O)cs3)c2=O)cc1`, the half-life was above 120 min. In the case of `CCOc1cccc(NC(=O)c2ccc(N3CCCC3)c(C(F)(F)F)c2)c1` it was 23 min; in that of `COCC1(CO)C(=O)C2CCN1CC2` (stereo not given), above 120 min. With `CN1CCN(C(=O)c2cc(-c3cccnc3)nc3c2cnn3C)CC1` the figure was above 120 min; with `Cc1onc(-c2ccccc2)c1-c1ccc(S(N)(=O)=O)cc1`, above 120 min. The compound `CCCn1ncc(CN2CCCC(C(=O)c3cccc(OC(C)C)c3)C2)c1C` (stereo not given) registered a half-life of 8.9 min. Regarding `COc1ccc(NC(=O)Cn2cc(C(=O)c3cccs3)c3ccccc32)cc1`, the half-life was found to be 16.6 min.

The compound `Cn1c(=O)c(F)c(Nc2ccc(I)cc2F)c2c(=O)n(CC(O)CO)cnc21` (stereo not given) showed a half-life above 120 min. With `Nc1nc(O)c(C2=C3C(=Nc4ccccc43)C(=O)NCC2)[nH]1` the figure was above 120 min. With `CC(=O)O[C@]1(C(C)=O)CC[C@H]2[C@@H]3C=C(Cl)C4=CC(=O)CC[C@]4(C)[C@H]3CC[C@@]21C` the figure was 36.7 min. With `Nc1ncnc2c1ncn2[C@H]1O[C@@H](C(=O)N2CCN(CC(=O)Nc3cccc4c3CNC4=O)CC2)[C@H](O)[C@@H]1O` the figure was above 120 min.

On to `CCC1CCCCN1CC(=O)N1CCCc2c1c(=O)oc1ccc(OCc3ccccc3)cc21` (stereo not given), for which the half-life is 0.54 min. With `CC(C)(O)c1ccc2c(c1)ncn2-c1cccc(-c2ccccc2C#N)c1` the figure was above 120 min; with `COc1cccc(CCc2ccccc2OCC(CN(C)C)OC(=O)CCC(=O)O)c1` (stereo not given), 38.8 min.

`CC(Cc1cccc(C(F)(F)F)c1)NCCOC(=O)c1ccccc1` (stereo not given) showed a half-life of 0.84 min.

For `Cn1cnc2c1c(=O)[nH]c(=O)n2C`, the half-life stood at 60.4 min.

In turn, `Cc1ccc(NC(=O)Cn2c(=O)n(CCC(=O)N3CCc4ccccc4C3)c(=O)c3ccccc32)c(C)c1` came in with a half-life of 1.41 min. With `CC(C)(C)CC(=O)OCC(=O)[C@@]1(O)CC[C@H]2[C@@H]3CCC4=CC(=O)C=C[C@]4(C)[C@H]3[C@@H](O)C[C@@]21C` the figure was 2.13 min; with `O=C(NN1CCCC1)NS(=O)(=O)c1ccc(Cl)cc1`, above 120 min. For `Cc1cn(C[C@H](N)C(=O)O)c(=O)n(Cc2ccsc2C(=O)O)c1=O`, the half-life came to 53.1 min. Consider `CC1=C(CC(=O)O)c2cc(F)ccc2/C1=C\c1ccc(S(C)=O)cc1` (stereo not given), for which the half-life was above 120 min.

As for `O=C(CCBr)N1CCN(C(=O)CCBr)CC1`, the half-life is above 120 min. With `CCOC(=O)[C@H](CCc1ccccc1)N[C@H]1CS[C@H](c2cccs2)CN(CC(=O)O)C1=O`, the half-life was 6.54 min.

In turn, `COC(=O)c1ccc2c(C(=Nc3ccc(N(C)C(=O)CN4CCN(C)CC4)cc3)c3ccccc3)c(O)[nH]c2c1` came in with a half-life of 49.1 min. In the case of `COCCCN1CCC(NC(=O)c2cc(Cl)c(N)c3c2OCC3)CC1` it was above 120 min; in that of `Fc1ccc(CN2CCC(Nc3ccc(C(F)(F)F)nn3)CC2)cc1F`, 42.3 min. Take `CCOC(=O)C1=Cc2ccc(C(F)(F)C(F)(F)F)cc2N=C(N)C1`: the half-life stood at 9.93 min.
